Source: patent US8846694B2, “Pyrrolidone derivatives for use as MetAP-2 inhibitors” (Merck Patent GmbH, priority 2008, dated 2014)
pIC50: −log10 of the molar value. Structures can show the parent of a compound that is named as a salt.

Target: MetAP-2 (Homo sapiens, UniProt P50579)
Assay: MetAP-2 activity measurement (coupled enzymatic reactions, substrate Met-Arg-Ser, photometric at 450 nm)
Assay type: biochemical
Conditions: read-out: IC50 enzyme (Inhibition of MetAP-2)
Experimental: MetAP-2 Activity Measurement
The MetAP-2 activity is determined by coupling enzymatic reactions. The tripeptide Met-Arg-Ser (MAS) is employed as substrate. The methionine liberated is firstly converted into Metox and H2O2 by L-aminooxidase (AAO). In the second step, the peroxidase (POD) with the aid of the H2O2 catalyses the oxidation of the leukodye dianisidine to dianisidineox, the increase of which is detected photometrically at 450 nm.
MetAP-2 activity can be recorded continuously as kinetics. The reaction scheme illustrates that one mol of dianisidineox is formed per mol of methionene. The MetAP-2 enzyme activity can therefore be calculated directly as Δ absorption per time unit. […] of the MetAP-2 activity (mol of Met/time unit) is possible with the aid of the dianisidineox extinction coefficient.
The change in extinction per time unit is depicted graphically and a slope calculation is carried out in the visually linear region of the reaction.

MetAP-2, sequence (P50579 whole entry, species assumed): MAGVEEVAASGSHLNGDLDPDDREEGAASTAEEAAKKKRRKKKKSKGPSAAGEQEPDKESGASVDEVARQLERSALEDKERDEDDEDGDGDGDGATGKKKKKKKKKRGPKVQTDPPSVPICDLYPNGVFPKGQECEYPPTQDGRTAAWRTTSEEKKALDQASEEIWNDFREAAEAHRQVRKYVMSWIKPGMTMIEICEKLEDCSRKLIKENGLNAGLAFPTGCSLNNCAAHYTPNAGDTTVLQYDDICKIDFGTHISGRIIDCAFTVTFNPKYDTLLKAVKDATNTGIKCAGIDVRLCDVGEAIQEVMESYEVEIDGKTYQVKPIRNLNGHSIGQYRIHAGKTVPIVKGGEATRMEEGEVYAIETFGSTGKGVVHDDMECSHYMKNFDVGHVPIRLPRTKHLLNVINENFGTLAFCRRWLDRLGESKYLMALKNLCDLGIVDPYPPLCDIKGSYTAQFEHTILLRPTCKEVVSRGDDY

| Compound | pIC50 |
| --- | --- |
| c1ccc(-c2ccccc2OC[C@H]2CCCN2c2ncnc3[nH]cnc23)cc1 [A62, 6-[(R)-2-(Biphenyl-2-yloxymethyl)pyrrolidin-1-yl]-9H-purine] | 5.00 to 6.00 |
| c1ccc(-c2cccc(OC[C@H]3CCCN3c3ncnc4[nH]cnc34)c2)cc1 [A63, 6-[(R)-2-(Biphenyl-3-yloxymethyl)pyrrolidin-1-yl]-9H-purine] | 5.00 to 6.00 |
| c1ccc(-c2ccc(OC[C@H]3CCCN3c3ncnc4[nH]cnc34)cc2)cc1 [A64, 6-[(R)-2-(Biphenyl-4-yloxymethyl)pyrrolidin-1-yl]-9H-purine] | < 5.00 |
| COC(=O)c1cccc(-c2ncc(OC[C@H]3CCCN3c3ncnc4[nH]cnc34)cn2)c1 [A65, Methyl 3-{5-[(R)-1-(9H-purin-6-yl)pyrrolidin-2-yl-methoxy]pyrimidin-2-yl}benzoate] | 6.00 to 8.00 |
| O=C(NCCN1CCOCC1)c1cccc(-c2ncc(OC[C@H]3CCCN3c3ncnc4[nH]cnc34)cn2)c1 [A66, N-(2-Morpholin-4-ylethyl)-3-{5-[(R)-1-(9H-purin-6-yl)pyrrolidin-2-ylmethoxy]pyrimidin-2-yl}-benzamide] | 6.00 to 8.00 |
| CNC(=O)/C=C1/CCc2c(OC[C@H]3CCCN3c3ncnc4[nH]cnc34)cccc2C1=O [A67, N-Methyl-2-[1-oxo-5-[(R)-1-(9H-purin-6-yl)-pyrrolidin-2-ylmethoxy]-3,4-dihydro-1H-naphthalen-(2Z)-ylidene]acetamide] | 6.00 to 8.00 |
| CC(O)CNC(=O)c1cc(OC[C@H]2CCCN2c2ncnc3[nH]cnc23)c2ccccc2n1 (stereo partly drawn) [A68, N-(2-Hydroxypropyl)-4-[(R)-1-(9H-purin-6-yl)-pyrrolidin-2-ylmethoxy]quinoline-2-carboxamide hydrochloride] | 6.00 to 8.00 |
| O=C(NC1CCCC1)c1cc(OC[C@H]2CCCN2c2ncnc3[nH]cnc23)c2ccccc2n1 [A69, N-Cyclopentyl-4-[(R)-1-(9H-purin-6-yl)-pyrrolidin-2-ylmethoxy]quinoline-2-carboxamide] | 5.00 to 6.00 |
| CCCCNC(=O)c1cc(OC[C@H]2CCCN2c2ncnc3[nH]cnc23)c2ccccc2n1 [A70, N-Butyl-4-[(R)-1-(9H-purin-6-yl)pyrrolidin-2-yl-methoxy]quinoline-2-carboxamide] | 6.00 to 8.00 |
| CCCNC(=O)c1cc(OC[C@H]2CCCN2c2ncnc3[nH]cnc23)c2ccccc2n1 [A71, N-Propyl-4-[(R)-1-(9H-purin-6-yl)pyrrolidin-2-yl-methoxy]quinoline-2-carboxamide] | 6.00 to 8.00 |
| CC1(C)Cc2cccc(OC[C@H]3CCCN3c3ncnc4[nH]cnc34)c2O1 [A72, 6-[(R)-2-(2,2-Dimethyl-2,3-dihydrobenzofuran-7-yloxymethyl)pyrro!idin-1-yl]-9H-purine] | 5.00 to 6.00 |
| c1cc(OC[C@H]2CCCN2c2ncnc3[nH]cnc23)c2ncoc2c1 [A73, 6-[(R)-2-(Benzoxazol-4-yloxymethyl)pyrrolidin-1-yl]-9H-purine] | 5.00 to 6.00 |
| CCOC(=O)/C=C/c1ccccc1OC[C@H]1CCCN1c1ncnc2[nH]cnc12 [A74, Ethyl (E)-3-{2-[(R)-1-(9H-purin-6-yl)pyrrolidin-2-ylmethoxy]phenyl}acrylate] | 6.00 to 8.00 |
| Cc1cc2c(OC[C@H]3CCCN3c3ncnc4[nH]cnc34)cccc2n1C(=O)C(F)(F)F [A75, 2,2,2-Trifluoro-1-{2-methyl-4-[(R)-1-(9H-purin-6-yl)pyrrolidin-2-ylmethoxy]indol-1-yl}ethanone] | 5.00 to 6.00 |
| O=C(O)/C=C/c1ccccc1OC[C@H]1CCCN1c1ncnc2[nH]cnc12 [A76, (E)-3-{2-[(R)-1-(9H-Purin-6-yl)pyrrolidin-2-yl-methoxy]phenyl}acrylic acid] | < 5.00 |
| Fc1ccc(-c2ncc(OC[C@H]3CCCN3c3ncnc4[nH]cnc34)cn2)cc1 [A77, 6-{(R)-2-[2-(4-Fluorophenyl)pyrimidin-5-yl-oxymethyl]pyrrolidin-1-yl}-9H-purine] | 5.00 to 6.00 |
| CNC(=O)/C=C/c1ccccc1OC[C@H]1CCCN1c1ncnc2[nH]cnc12 [A78, (E)-N-Methyl-3-{2-[(R)-1-(9H-purin-6-yl)-pyrrolidin-2-ylmethoxy]phenyl}acrylamide] | 5.00 to 6.00 |
| O=C(/C=C/c1ccccc1OC[C@H]1CCCN1c1ncnc2[nH]cnc12)NCCCO [A79, (E)-N-(3-Hydroxypropyl)-3-{2-[(R)-1-(9H-purin-6-yl)pyrrolidin-2-ylmethoxy]phenyl}acrylamide] | 6.00 to 8.00 |
| O=C(NC1CCC1)c1cc(OC[C@H]2CCCN2c2ncnc3[nH]cnc23)c2ccccc2n1 [A80, N-Cyclobutyl-4-[(R)-1-(9H-purin-6-yl)pyrrolidin-2-ylmethoxy]quinoline-2-carboxamide] | 6.00 to 8.00 |

| Compound | pIC50 |
| --- | --- |
| CCCCCNC(=O)c1cc(OC[C@H]2CCCN2c2ncnc3[nH]cnc23)c2ccccc2n1 [A81, N-Pentyl-4-[(R)-1-(9H-purin-6-yl)pyrrolidin-2-yl-methoxy]quinoline-2-carboxamide] | 6.00 to 8.00 |
| Cn1ncc(Cl)c1/C=C1/CCc2c(OC[C@H]3CCCN3c3ncnc4[nH]cnc34)cccc2C1=O [A82, 2-[1-(4-Chloro-2-methyl-2H-pyrazol-3-yl)meth-(Z)-ylidene]-5-[(R)-1-(9H-purin-6-yl)pyrrolidin-2-ylmethoxy]-3,4-dihydro-2H-naphthalen-1-one] | 6.00 to 8.00 |
| O=C1/C(=C\c2cc[nH]n2)CCc2c(OC[C@H]3CCCN3c3ncnc4[nH]cnc34)cccc21 [A83, 5-[(R)-1-(9H-Purin-6-yl)pyrrolidin-2-ylmethoxy]-2-[1-(1H-pyrazol-3-yl)meth-(Z)-yildene]-3,4-dihydro-2H-naphthaien-1-one] | 6.00 to 8.00 |
| O=C(NCCO)c1cc(OC[C@H]2CCCN2c2ncnc3[nH]cnc23)c2ccccc2n1 [A84, N-(2-Hydroxyethyl)-4-[(R)-1-(9H-purin-6-yl)-pyrrolidin-2-ylmethoxy]quinoline-2-carboxamide] | 6.00 to 8.00 |
| O=C(NCCCO)c1cc(OC[C@H]2CCCN2c2ncnc3[nH]cnc23)c2ccccc2n1 [A85, N-(3-Hydroxypropyl)-4-[(R)-1-(9H-purin-6-yl)-pyrrolidin-2-ylmethoxy]quinoline-2-carboxamide] | 6.00 to 8.00 |
| c1cc(OC[C@H]2CCCN2c2ncnc3[nH]cnc23)c2cccnc2c1 [A86, 5-[(R)-1-(9H-Purin-6-yl)pyrrolidin-2-yl-methoxy]quinoline] | 6.00 to 8.00 |
| c1cc(OC[C@H]2CCCN2c2ncnc3[nH]cnc23)c2cnccc2c1 [A87, 8-[(R)-1-(9H-Purin-6-yl)pyrrolidin-2-yl-methoxy]isoquinoline] | 6.00 to 8.00 |
| O=C(NCC1CC(O)C1)c1cc(OC[C@H]2CCCN2c2ncnc3[nH]cnc23)c2ccccc2n1 (stereo partly drawn) [A88, N-(3-Hydroxycyclobutylmethyl)-4-[(R)-1-(9H-purin-6-yl)pyrrolidin-2-ylmethoxy]quinoline-2-carboxamide] | 6.00 to 8.00 |
| Cc1cc2c(OC[C@H]3CCCN3c3ncnc4[nH]cnc34)cccc2cn1 [A89, 3-Methyl-5-[(R)-1-(9H-purin-6-yl)pyrrolidin-2-yl-methoxy]isoquinoline] | 6.00 to 8.00 |
| CC(=O)N(CCN1CCOCC1)Cc1ccc(OC[C@H]2CCCN2c2ncnc3[nH]cnc23)c2ccccc12 [A92, N-(2-Morpholin-4-ylethyl)-N-{4-[(R)-1-(9H-purin-6-yl)pyrrolidin-2-ylmethoxy]naphthalen-1-yl-methyl}acetamide] | 6.00 to 8.00 |
| c1ccc2c(OC[C@H]3CCCN3c3ncnc4[nH]cnc34)ccnc2c1 [A93, 4-[(R)-1-(9H-Purin-6-yl)pyrrolidin-2-yl-methoxy]quinoline] | 6.00 to 8.00 |
| O=CN(CCN1CCOCC1)Cc1ccc(OC[C@H]2CCCN2c2ncnc3[nH]cnc23)c2ccccc12 [A94, N-(2-Morpholin-4-ylethyl)-N-{4-[(R)-1-(9H-purin-6-yl)pyrrolidin-2-ylmethoxy]naphthalen-1-yl-methyl}formamide] | 6.00 to 8.00 |
| c1ccc2c(OC[C@H]3CCCN3c3ncnc4[nH]cnc34)ccc(CNCCCN3CCOCC3)c2c1 [A95, (3-Morpholin-4-ylpropyl)-{4-[(R)-1-(9H-purin-6-yl)pyrrolidin-2-ylmethoxy]naphthalen-1-yl-methyl}amine] | 6.00 to 8.00 |
| O=C1c2cccc(OC[C@H]3CCCN3c3ncnc4[nH]cnc34)c2CC[C@@H]1Cc1c[nH]cn1 [A96, (R)-2-(1H-Imidazol-4-ylmethyl)-5-[(R)-1-(9H-purin-6-yl)pyrrolidin-ylmethoxy]-3,4-dihydro-2H-naphthalen-1-one] | 6.00 to 8.00 |
| O=C1c2cccc(OC[C@H]3CCCN3c3ncnc4[nH]cnc34)c2CC[C@H]1Cc1c[nH]cn1 [A97, (S)-2-(1H-Imidazol-4-y!methyl)-5-[(R)-1-(9H-purin-6-yl)pyrrolidin-2-ylmethoxy]-3,4-dihydro-2H-naphthalen-1-one] | 6.00 to 8.00 |
| CC(=O)N(CCN1CCCCC1)Cc1ccc(OC[C@H]2CCCN2c2ncnc3[nH]cnc23)c2ccccc12 [A98, N-(2-Piperidin-1-ylethyl)-N-{4-[(R)-1-(9H-purin-6-yl)pyrrolidin-2-ylmethoxy]naphthalen-1-yl-methyl]acetamide] | 6.00 to 8.00 |
| CC(=O)N(Cc1ccn(C)n1)Cc1ccc(OC[C@H]2CCCN2c2ncnc3[nH]cnc23)c2ccccc12 [A99, N-(1-Methyl-1H-pyrazol-3-ylmethyl)-N-{4-[(R)-1-(9H-purin-6-yl)pyrrolidin-2-ylmethoxy]-naphthalen-1-ylmethyl}acetamide] | 6.00 to 8.00 |
| CC(=O)N(Cc1ccc(OC[C@H]2CCCN2c2ncnc3[nH]cnc23)c2ccccc12)CC(O)CO (stereo partly drawn) [A100, N-(2,3-Dihydroxypropyl)-N-{4-[(R)-1-(9H-purin-6-yl)pyrrolidin-2-ylmethoxy]naphthalen-1-yl-methyl}acetamide] | 6.00 to 8.00 |
| O=CN(CCN1CCCCC1)Cc1ccc(OC[C@H]2CCCN2c2ncnc3[nH]cnc23)c2ccccc12 [A101, N-(2-Piperidin-1-ylethyl)-N-{4-[(R)-1-(9H-purin-6-yl)pyrrolidin-2-ylmethoxy]naphthalen-1-yl-methyl}formamide] | 6.00 to 8.00 |
